Measurements reported in patent US20020137929A1, “1 - (3-heterocyclylphenyl) isothiourea, -isourea, -guanidine and -amidine herbicidal agents” (Intellectual Property Department, BASF Aktiengesellschaft, priority 1998, published 2002).

What was measured:
SETVI (Foxtail, Green) [1] = test: Postemergence herbicidal evaluation; type: in vivo, Setaria viridis; settings: postemergence
How it was run: (§1)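 Compound is applied as a foliar spray to seedlings about two weeks old, formulated in equal parts acetone and water with 0.5% TWEEN 20 and delivered at 40 psi to give about 0.0156–0.500 kg per hectare. Injury is rated visually 0–9 after four to five weeks.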

ORYSAT (Rice, Tebonnet) = test: Postemergence herbicidal evaluation; type: in vivo, Oryza sativa, (L.) Tebonnet; settings: postemergence
How it was run: as §1

ZEAMX (Corn, Field) [2] = test: Postemergence herbicidal evaluation; type: in vivo, Zea mays; settings: postemergence
How it was run: as §1

ECHCG (Barnyardgrass) = test: Preemergence herbicidal evaluation; type: in vivo, Echinochloa crus-galli; settings: preemergence, rated 4-5 weeks after treatment, 0-9 scale
How it was run: (§2)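 Preemergence soil application of compound, sprayed in aqueous acetone at rates equivalent to about 0.0156 to 0.500 kg per hectare onto freshly sown cups. Plant response was judged by eye on a 0-9 scale four to five weeks later.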

SETVI (Foxtail, Green) [3] = test: Preemergence herbicidal evaluation; type: in vivo, Setaria viridis; settings: preemergence, rated 4-5 weeks after treatment, 0-9 scale
How it was run: as §2

[4] = test system: TRZAWR (Wheat, Winter, cv Riband); test: Preemergence herbicidal evaluation; type: in vivo, Triticum aestivum; settings: preemergence, rated 4-5 weeks after treatment, 0-9 scale
How it was run: as §2

ZEAMX (Corn, Field) [5] = test: Preemergence herbicidal evaluation; type: in vivo, Zea mays; settings: preemergence, rated 4-5 weeks after treatment, 0-9 scale
How it was run: as §2

[6] = test system: ECHORC (Watergrass (Calif.)); test: Preemergence weed control under flooded paddy conditions; type: in vivo, Echinochloa oryzoides; settings: rated 3-4 weeks after treatment
How it was run: (§3)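 Flooded-pot preemergence screen with silt loam and seeds in the upper 0.5 cm. Dose about 0.0313 to 0.500 kg/ha, delivered into flood water; visual 0-9 score after 3 to 4 weeks.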

CYPIR (Rice Flatsedge) [7] = test: as above; type: in vivo, Cyperus iria; settings: rated 3-4 weeks after treatment
How it was run: as §3

CYPSE (Flatsedge) [8] = test: as above; type: in vivo, Cyperus serotinus; settings: rated 3-4 weeks after treatment
How it was run: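 Silt loam, seeds in top 0.5 cm; flood held 1.5-3 cm; test cpd as acetone/water 50/50 into flood water, ~0.0313-0.500 kg/ha a.i.; greenhouse 3-4 wk; visual 0-9 score vs control.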

[9] = test system: ECHORC (Watergrass (Calif.)); test: Postemergence weed control under flooded paddy conditions; type: in vivo, Echinochloa oryzoides; settings: postemergence weeds, rated 3 to 4 weeks after treatment
How it was run: (§4)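 Weeds 3 to 5 cm tall and rice seedlings at the 1.5 to 2.5 leaf stage were flooded, with water held 1.5 to 3 cm above the soil. Compounds in 50/50 v/v aqueous/acetone went into the flood water at about 0.0313 to 0.500 kg/ha. Visual 0-9 ratings versus control were made 3 to 4 weeks later.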

CYPIR (Rice Flatsedge) [10] = test: as above; type: in vivo, Cyperus iria; settings: postemergence weeds, rated 3 to 4 weeks after treatment
How it was run: as §4

CYPSE (Flatsedge) [11] = test: as above; type: in vivo, Cyperus serotinus; settings: postemergence weeds, rated 3 to 4 weeks after treatment
From the text: Results of herbicide evaluation are expressed on a rating scale (0-9). The scale is based upon a visual observation of plant stand, vigor, malformation, size, chlorosis and overall plant appearance as compared with a control.
Plastic containers containing weeds which are 3 to 5 cm tall and rice seedlings at the 1.5 to 2.5 leaf stage are flooded with water. The water is maintained at 1.5 to 3 cm above the soil surface for the duration of the experiment. Test compounds are applied as aqueous/ acetone mixtures 50/50 v/v directly into the flood water to provide the equivalent of about 0.0313 to 0.500 kg/ha of active ingredient. The treated containers are placed on greenhouse benches and cared for in accordance with conventional greenhouse procedures. Three to four weeks after treatment, the test is terminated and each container is examined and herbicidal effect rated according to the rating system provided in Example 37. The compounds evaluated are reported by compound number given in Example 37.

C=CCN1C(=O)C(CC(=O)NS(C)(=O)=O)SC1=Nc1cc(-n2c(=O)cc(C(F)(F)F)n(C)c2=O)c(F)cc1Cl (centres unmarked) [Compound 96, 3-Allyl-2-{{2-chloro-5-[3,6-dihydro-3-methyl-2,6-dioxo-4-(trifluoromethyl)-1(2H)-pryimidinyl]-4-fluorophenyl}imino}-N-(methylsulfonyl)-4-oxo-5-thiazolidineacetamide]
2.0: ORYSAT herbicidal rating (ORYSAT (Rice, Tebonnet); rate 0.0156 kg/ha) | ORYSAT herbicidal rating (ORYSAT (Rice, Tebonnet); rate 0.0313 kg/ha) | ORYSAT herbicidal rating (ORYSAT (Rice, Tebonnet); rate 0.1250 kg/ha) | ZEAMX rating (ZEAMX (Corn, Field) [5]; 0.2500 kg/ha)
4.0: SETVI herbicidal rating (SETVI (Foxtail, Green) [1]; rate 0.1250 kg/ha) | SETVI rating (SETVI (Foxtail, Green) [3]; 0.5000 kg/ha) | ZEAMX rating (ZEAMX (Corn, Field) [5]; 0.5000 kg/ha)
1.0: SETVI herbicidal rating (SETVI (Foxtail, Green) [1]; rate 0.0313 kg/ha) | ECHCG rating (ECHCG (Barnyardgrass); 0.2500 kg/ha) | ECHCG rating (ECHCG (Barnyardgrass); 0.5000 kg/ha) | SETVI rating (SETVI (Foxtail, Green) [3]; 0.0313 kg/ha) | SETVI rating (SETVI (Foxtail, Green) [3]; 0.0625 kg/ha) | SETVI rating (SETVI (Foxtail, Green) [3]; 0.2500 kg/ha) | TRZAWR rating ([4]; 0.2500 kg/ha) | TRZAWR rating ([4]; 0.5000 kg/ha) | ZEAMX rating (ZEAMX (Corn, Field) [5]; 0.0625 kg/ha)
6.0: CYPIR herbicidal effect rating (CYPIR (Rice Flatsedge) [7]; 0.1250 kg/ha) | CYPIR herbicidal effect rating (CYPIR (Rice Flatsedge) [7]; 0.2500 kg/ha) | Herbicidal rating CYPIR (CYPIR (Rice Flatsedge) [10]; Rate 0.1250 kg/ha) | Herbicidal rating CYPIR (CYPIR (Rice Flatsedge) [10]; Rate 0.2500 kg/ha)
4.5: ZEAMX herbicidal rating (ZEAMX (Corn, Field) [2]; rate 0.0156 kg/ha) | ZEAMX herbicidal rating (ZEAMX (Corn, Field) [2]; rate 0.0313 kg/ha) | ZEAMX herbicidal rating (ZEAMX (Corn, Field) [2]; rate 0.0625 kg/ha)
1.5: ORYSAT herbicidal rating (ORYSAT (Rice, Tebonnet); rate 0.0625 kg/ha)
3.0: ECHORC herbicidal effect rating ([6]; 0.2500 kg/ha) | Herbicidal rating ECHORC ([9]; Rate 0.2500 kg/ha)
7.0: SETVI herbicidal rating (SETVI (Foxtail, Green) [1]; rate 0.0625 kg/ha)
0.0: SETVI herbicidal rating (SETVI (Foxtail, Green) [1]; rate 0.0156 kg/ha) | ECHCG rating (ECHCG (Barnyardgrass); 0.0313 kg/ha) | ECHCG rating (ECHCG (Barnyardgrass); 0.0625 kg/ha) | ECHCG rating (ECHCG (Barnyardgrass); 0.1250 kg/ha) | SETVI rating (SETVI (Foxtail, Green) [3]; 0.1250 kg/ha) | TRZAWR rating ([4]; 0.0313 kg/ha) | TRZAWR rating ([4]; 0.0625 kg/ha) | TRZAWR rating ([4]; 0.1250 kg/ha) | ZEAMX rating (ZEAMX (Corn, Field) [5]; 0.0313 kg/ha) | ZEAMX rating (ZEAMX (Corn, Field) [5]; 0.1250 kg/ha) | ECHORC herbicidal effect rating ([6]; 0.0313 kg/ha) | ECHORC herbicidal effect rating ([6]; 0.0625 kg/ha) | ECHORC herbicidal effect rating ([6]; 0.1250 kg/ha) | CYPIR herbicidal effect rating (CYPIR (Rice Flatsedge) [7]; 0.0313 kg/ha) | CYPSE herbicidal effect rating (CYPSE (Flatsedge) [8]; 0.0313 kg/ha) | CYPSE herbicidal effect rating (CYPSE (Flatsedge) [8]; 0.0625 kg/ha) | CYPSE herbicidal effect rating (CYPSE (Flatsedge) [8]; 0.1250 kg/ha) | CYPSE herbicidal effect rating (CYPSE (Flatsedge) [8]; 0.2500 kg/ha) | Herbicidal rating ECHORC ([9]; Rate 0.0313 kg/ha) | Herbicidal rating ECHORC ([9]; Rate 0.0625 kg/ha) | Herbicidal rating ECHORC ([9]; Rate 0.1250 kg/ha) | Herbicidal rating CYPIR (CYPIR (Rice Flatsedge) [10]; Rate 0.0313 kg/ha) | Herbicidal rating CYPSE (CYPSE (Flatsedge) [11]; Rate 0.0313 kg/ha) | Herbicidal rating CYPSE (CYPSE (Flatsedge) [11]; Rate 0.0625 kg/ha) | Herbicidal rating CYPSE (CYPSE (Flatsedge) [11]; Rate 0.1250 kg/ha) | Herbicidal rating CYPSE (CYPSE (Flatsedge) [11]; Rate 0.2500 kg/ha)
5.0: ZEAMX herbicidal rating (ZEAMX (Corn, Field) [2]; rate 0.1250 kg/ha) | CYPIR herbicidal effect rating (CYPIR (Rice Flatsedge) [7]; 0.0625 kg/ha) | Herbicidal rating CYPIR (CYPIR (Rice Flatsedge) [10]; Rate 0.0625 kg/ha)
